Assay results as given in ChEMBL document CHEMBL1955725, “Structure-guided lead optimization of triazolopyrimidine-ring substituents identifies potent Plasmodium falciparum dihydroorotate dehydrogenase inhibitors with clinical candidate potential” (J Med Chem, 2011).
Values after ≈ are worked out from the molar mass of the structure shown.

Tested on: Liver
Assay: Intrinsic clearance in mouse liver microsomes
Assay type: ADME, Microsome
Settings: not given

SMILES	Intrinsic clearance [µL/min/mg]
CCc1nc2nc(C)cc(Nc3cccc(Cl)c3)n2n1	125.4
Cc1cc(Nc2cccc(Cl)c2)n2nc(C(C)(F)F)nc2n1	72.2
Cc1cc(Nc2ccc(C(F)(F)F)cc2)n2nc(C(F)(F)F)nc2n1	< 6
Cc1cc(Nc2ccc(S(F)(F)(F)(F)F)cc2)n2nc(C(F)(F)F)nc2n1	< 6
COCCc1nc2nc(C)cc(Nc3ccc(C(F)(F)F)cc3)n2n1	14.3
COCCc1nc2nc(C)cc(Nc3ccc(S(F)(F)(F)(F)F)cc3)n2n1	14.1
CSc1nc2nc(C)cc(Nc3ccc(C(F)(F)F)cc3)n2n1	76.9
CSc1nc2nc(C)cc(Nc3ccc(S(F)(F)(F)(F)F)cc3)n2n1	107.5
Cc1cc(Nc2ccc(C(F)(F)F)cc2)n2nc(CCO)nc2n1	6.9

Biological target: T1, Dihydroorotate dehydrogenase (Plasmodium falciparum, UniProt Q54A96)
T1 sequence (Q54A96 whole entry): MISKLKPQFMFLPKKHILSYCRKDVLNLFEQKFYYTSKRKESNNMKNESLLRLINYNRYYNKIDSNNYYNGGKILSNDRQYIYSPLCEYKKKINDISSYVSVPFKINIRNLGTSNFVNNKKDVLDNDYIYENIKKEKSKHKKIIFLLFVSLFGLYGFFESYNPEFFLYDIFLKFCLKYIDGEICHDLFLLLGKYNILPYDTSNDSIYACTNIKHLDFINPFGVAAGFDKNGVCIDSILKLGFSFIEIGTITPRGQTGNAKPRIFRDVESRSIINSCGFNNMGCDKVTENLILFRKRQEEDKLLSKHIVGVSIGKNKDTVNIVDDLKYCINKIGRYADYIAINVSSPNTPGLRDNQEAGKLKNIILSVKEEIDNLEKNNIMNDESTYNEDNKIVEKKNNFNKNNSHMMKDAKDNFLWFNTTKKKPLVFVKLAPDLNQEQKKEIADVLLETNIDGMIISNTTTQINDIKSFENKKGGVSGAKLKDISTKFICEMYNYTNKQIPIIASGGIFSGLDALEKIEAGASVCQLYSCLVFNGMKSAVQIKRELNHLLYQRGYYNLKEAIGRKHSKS
Settings: not given

SMILES	IC50 [nM]
Cc1cc(Nc2cccc(Cl)c2)n2nc(CC3CC3)nc2n1	> 10000
CNCCOc1nc2nc(C)cc(Nc3ccc(S(F)(F)(F)(F)F)cc3)n2n1	> 10000
Cc1cc(Nc2ccc(Cl)cc2)n2nc(CC(C)C)nc2n1	> 10000
Cc1cc(Nc2cccc(Cl)c2)n2nc(CC(C)C)nc2n1	> 10000
CCc1nc2nc(C)cc(Nc3cccc(Cl)c3)n2n1	240
Cc1cc(Nc2cccc(Cl)c2)n2nc(C(C)C)nc2n1	120
Cc1cc(Nc2ccc(C(F)(F)F)cc2)n2nc(C(C)C)nc2n1	110
Cc1cc(Nc2ccc(S(F)(F)(F)(F)F)cc2)n2nc(C(C)C)nc2n1	100
Cc1cc(Nc2ccc(C(F)(F)F)cc2)n2nc(CC(C)C)nc2n1	2000
Cc1cc(Nc2ccc(S(F)(F)(F)(F)F)cc2)n2nc(CC(C)C)nc2n1	> 10000
Cc1cc(Nc2ccc(C(F)(F)F)cc2)n2nc(C(C)(C)C)nc2n1	460
Cc1cc(Nc2ccc(S(F)(F)(F)(F)F)cc2)n2nc(C(C)(C)C)nc2n1	550
CCC(C)c1nc2nc(C)cc(Nc3ccc(C(F)(F)F)cc3)n2n1 (stereo not drawn)	380
CCC(C)c1nc2nc(C)cc(Nc3ccc(S(F)(F)(F)(F)F)cc3)n2n1 (stereo not drawn)	330
Cc1cc(Nc2ccc(Cl)cc2)n2nc(C3CC3)nc2n1	880
Cc1cc(Nc2cccc(Cl)c2)n2nc(C3CC3)nc2n1	820
Cc1cc(Nc2ccc(Cl)cc2)n2nc(CC3CC3)nc2n1	12000

SMILES	IC50 [nM]
Cc1cc(Nc2ccc(C(F)(F)F)cc2)n2nc(CC3CC3)nc2n1	1700
Cc1cc(Nc2ccc(S(F)(F)(F)(F)F)cc2)n2nc(CC3CC3)nc2n1	5700
Cc1cc(Nc2cccc(Cl)c2)n2nc(C(C)(F)F)nc2n1	54
CCC(F)(F)c1nc2nc(C)cc(Nc3ccc(Cl)cc3)n2n1	34
CCC(F)(F)c1nc2nc(C)cc(Nc3cccc(Cl)c3)n2n1	30
Cc1cc(Nc2ccc(C(F)(F)F)cc2)n2nc(C(F)(F)F)nc2n1	35
Cc1cc(Nc2ccc(S(F)(F)(F)(F)F)cc2)n2nc(C(F)(F)F)nc2n1	30
COCc1nc2nc(C)cc(Nc3ccc(Cl)cc3)n2n1	2200
COCc1nc2nc(C)cc(Nc3cccc(Cl)c3)n2n1	1700
COCCc1nc2nc(C)cc(Nc3ccc(Cl)cc3)n2n1	> 10000
COCCc1nc2nc(C)cc(Nc3cccc(Cl)c3)n2n1	> 10000
COCCc1nc2nc(C)cc(Nc3ccc(C(F)(F)F)cc3)n2n1	2500
COCCc1nc2nc(C)cc(Nc3ccc(S(F)(F)(F)(F)F)cc3)n2n1	2500
CSc1nc2nc(C)cc(Nc3ccc(Cl)cc3)n2n1	30
CSc1nc2nc(C)cc(Nc3ccc(C(F)(F)F)cc3)n2n1	36
CSc1nc2nc(C)cc(Nc3ccc(S(F)(F)(F)(F)F)cc3)n2n1	30
Cc1cc(Nc2ccc(C(F)(F)F)cc2)n2nc(CCO)nc2n1	930

Tested on: not listed separately
Assay: Inhibition of Plasmodium berghei C-terminal hexa-His tagged DHODH expressed in Escherichia coli by DCIP reduction assay
Settings: not given

SMILES	IC50 [nM]
Cc1cc(Nc2cccc(Cl)c2)n2nc(C(C)C)nc2n1	570
Cc1cc(Nc2ccc(C(F)(F)F)cc2)n2nc(C(C)C)nc2n1	4500
Cc1cc(Nc2ccc(S(F)(F)(F)(F)F)cc2)n2nc(C(C)C)nc2n1	3800
Cc1cc(Nc2ccc(C(F)(F)F)cc2)n2nc(C(C)(C)C)nc2n1	15000
Cc1cc(Nc2ccc(S(F)(F)(F)(F)F)cc2)n2nc(C(C)(C)C)nc2n1	16000
CCC(C)c1nc2nc(C)cc(Nc3ccc(C(F)(F)F)cc3)n2n1 (stereo not drawn)	4600
CCC(C)c1nc2nc(C)cc(Nc3ccc(S(F)(F)(F)(F)F)cc3)n2n1 (stereo not drawn)	4500
Cc1cc(Nc2ccc(Cl)cc2)n2nc(C3CC3)nc2n1	2800
Cc1cc(Nc2cccc(Cl)c2)n2nc(C3CC3)nc2n1	1700
CCC(F)(F)c1nc2nc(C)cc(Nc3ccc(Cl)cc3)n2n1	1800
CCC(F)(F)c1nc2nc(C)cc(Nc3cccc(Cl)c3)n2n1	1400
Cc1cc(Nc2ccc(C(F)(F)F)cc2)n2nc(C(F)(F)F)nc2n1	1300
Cc1cc(Nc2ccc(S(F)(F)(F)(F)F)cc2)n2nc(C(F)(F)F)nc2n1	2500
CSc1nc2nc(C)cc(Nc3ccc(C(F)(F)F)cc3)n2n1	4800
CSc1nc2nc(C)cc(Nc3ccc(S(F)(F)(F)(F)F)cc3)n2n1	> 10000

Tested on: Plasma
Assay: Plasma protein binding in human by chromatographic method
Assay type: ADME, cell-free
Settings: not given

SMILES	PPB [%]
CCc1nc2nc(C)cc(Nc3cccc(Cl)c3)n2n1	86.7
Cc1cc(Nc2cccc(Cl)c2)n2nc(C(C)(F)F)nc2n1	88.2
COCCc1nc2nc(C)cc(Nc3ccc(C(F)(F)F)cc3)n2n1	73.7
COCCc1nc2nc(C)cc(Nc3ccc(S(F)(F)(F)(F)F)cc3)n2n1	87.7
CSc1nc2nc(C)cc(Nc3ccc(C(F)(F)F)cc3)n2n1	91.8
CSc1nc2nc(C)cc(Nc3ccc(S(F)(F)(F)(F)F)cc3)n2n1	97.7
Cc1cc(Nc2ccc(C(F)(F)F)cc2)n2nc(CCO)nc2n1	67

Tested on: Plasmodium falciparum
Assay: Antimalarial activity against Plasmodium falciparum 3D7 by [3H]hypoxanthine incorporation assay in presence of human serum
Assay type: functional, organism-based
Settings: not given

SMILES	EC50 [nM]
CCc1nc2nc(C)cc(Nc3cccc(Cl)c3)n2n1	3300
Cc1cc(Nc2cccc(Cl)c2)n2nc(C(C)C)nc2n1	1100
Cc1cc(Nc2ccc(C(F)(F)F)cc2)n2nc(C(C)C)nc2n1	98
Cc1cc(Nc2ccc(S(F)(F)(F)(F)F)cc2)n2nc(C(C)C)nc2n1	420
Cc1cc(Nc2ccc(C(F)(F)F)cc2)n2nc(C(C)(C)C)nc2n1	290
Cc1cc(Nc2ccc(S(F)(F)(F)(F)F)cc2)n2nc(C(C)(C)C)nc2n1	2300
CCC(C)c1nc2nc(C)cc(Nc3ccc(C(F)(F)F)cc3)n2n1 (stereo not drawn)	270
CCC(C)c1nc2nc(C)cc(Nc3ccc(S(F)(F)(F)(F)F)cc3)n2n1 (stereo not drawn)	510
Cc1cc(Nc2ccc(Cl)cc2)n2nc(C3CC3)nc2n1	6800
Cc1cc(Nc2ccc(C(F)(F)F)cc2)n2nc(CC3CC3)nc2n1	3400
Cc1cc(Nc2ccc(S(F)(F)(F)(F)F)cc2)n2nc(CC3CC3)nc2n1	> 10000
Cc1cc(Nc2cccc(Cl)c2)n2nc(C(C)(F)F)nc2n1	130
CCC(F)(F)c1nc2nc(C)cc(Nc3ccc(Cl)cc3)n2n1	94
CCC(F)(F)c1nc2nc(C)cc(Nc3cccc(Cl)c3)n2n1	1200
Cc1cc(Nc2ccc(C(F)(F)F)cc2)n2nc(C(F)(F)F)nc2n1	73
Cc1cc(Nc2ccc(S(F)(F)(F)(F)F)cc2)n2nc(C(F)(F)F)nc2n1	140
COCCc1nc2nc(C)cc(Nc3ccc(C(F)(F)F)cc3)n2n1	4200
COCCc1nc2nc(C)cc(Nc3ccc(S(F)(F)(F)(F)F)cc3)n2n1	5000
CSc1nc2nc(C)cc(Nc3ccc(Cl)cc3)n2n1	150
CSc1nc2nc(C)cc(Nc3ccc(C(F)(F)F)cc3)n2n1	8.4
CSc1nc2nc(C)cc(Nc3ccc(S(F)(F)(F)(F)F)cc3)n2n1	32
Cc1cc(Nc2ccc(C(F)(F)F)cc2)n2nc(CCO)nc2n1	480

Tested on: not listed separately
Assay: Lipophilicity, log D of the compound at pH 7.4
Assay type: physicochemical
Settings: buffer

SMILES	logD
CCc1nc2nc(C)cc(Nc3cccc(Cl)c3)n2n1	2.8
Cc1cc(Nc2cccc(Cl)c2)n2nc(C(C)(F)F)nc2n1	3
Cc1cc(Nc2ccc(S(F)(F)(F)(F)F)cc2)n2nc(C(F)(F)F)nc2n1	3.7
COCCc1nc2nc(C)cc(Nc3ccc(C(F)(F)F)cc3)n2n1	2.7
COCCc1nc2nc(C)cc(Nc3ccc(S(F)(F)(F)(F)F)cc3)n2n1	3
CSc1nc2nc(C)cc(Nc3ccc(C(F)(F)F)cc3)n2n1	3.2
CSc1nc2nc(C)cc(Nc3ccc(S(F)(F)(F)(F)F)cc3)n2n1	3.5
Cc1cc(Nc2ccc(C(F)(F)F)cc2)n2nc(CCO)nc2n1	2.2

Tested on: not listed separately
Assay: Aqueous solubility of the compound at pH 6.5
Assay type: physicochemical
Settings: not given

SMILES	solubility [µM]
CCc1nc2nc(C)cc(Nc3cccc(Cl)c3)n2n1	170 (≈ 48.9 µg/mL)
Cc1cc(Nc2cccc(Cl)c2)n2nc(C(C)(F)F)nc2n1	77 (≈ 24.9 µg/mL)
Cc1cc(Nc2ccc(S(F)(F)(F)(F)F)cc2)n2nc(C(F)(F)F)nc2n1	30 (≈ 12.6 µg/mL)
COCCc1nc2nc(C)cc(Nc3ccc(C(F)(F)F)cc3)n2n1	71 (≈ 24.9 µg/mL)
COCCc1nc2nc(C)cc(Nc3ccc(S(F)(F)(F)(F)F)cc3)n2n1	31 (≈ 12.7 µg/mL)
CSc1nc2nc(C)cc(Nc3ccc(C(F)(F)F)cc3)n2n1	19 (≈ 6.45 µg/mL)
CSc1nc2nc(C)cc(Nc3ccc(S(F)(F)(F)(F)F)cc3)n2n1	7.8 (≈ 3.1 µg/mL)
Cc1cc(Nc2ccc(C(F)(F)F)cc2)n2nc(CCO)nc2n1	19 (≈ 6.41 µg/mL)

Tested on: Liver microsomes
Assay: Intrinsic clearance in human liver microsomes
Assay type: ADME, Microsome
Settings: not given

SMILES	Intrinsic clearance [µL/min/mg]
CCc1nc2nc(C)cc(Nc3cccc(Cl)c3)n2n1	78.3
Cc1cc(Nc2cccc(Cl)c2)n2nc(C(C)(F)F)nc2n1	44.4
Cc1cc(Nc2ccc(C(F)(F)F)cc2)n2nc(C(F)(F)F)nc2n1	< 5
Cc1cc(Nc2ccc(S(F)(F)(F)(F)F)cc2)n2nc(C(F)(F)F)nc2n1	< 5
COCCc1nc2nc(C)cc(Nc3ccc(C(F)(F)F)cc3)n2n1	9
COCCc1nc2nc(C)cc(Nc3ccc(S(F)(F)(F)(F)F)cc3)n2n1	11.5
CSc1nc2nc(C)cc(Nc3ccc(C(F)(F)F)cc3)n2n1	18.7
CSc1nc2nc(C)cc(Nc3ccc(S(F)(F)(F)(F)F)cc3)n2n1	22.4
Cc1cc(Nc2ccc(C(F)(F)F)cc2)n2nc(CCO)nc2n1	< 5

Biological target: Dihydroorotate dehydrogenase (quinone), mitochondrial (Homo sapiens, UniProt Q02127)
Settings: not given

Sequence of Dihydroorotate dehydrogenase (quinone), mitochondrial (Q02127 whole entry): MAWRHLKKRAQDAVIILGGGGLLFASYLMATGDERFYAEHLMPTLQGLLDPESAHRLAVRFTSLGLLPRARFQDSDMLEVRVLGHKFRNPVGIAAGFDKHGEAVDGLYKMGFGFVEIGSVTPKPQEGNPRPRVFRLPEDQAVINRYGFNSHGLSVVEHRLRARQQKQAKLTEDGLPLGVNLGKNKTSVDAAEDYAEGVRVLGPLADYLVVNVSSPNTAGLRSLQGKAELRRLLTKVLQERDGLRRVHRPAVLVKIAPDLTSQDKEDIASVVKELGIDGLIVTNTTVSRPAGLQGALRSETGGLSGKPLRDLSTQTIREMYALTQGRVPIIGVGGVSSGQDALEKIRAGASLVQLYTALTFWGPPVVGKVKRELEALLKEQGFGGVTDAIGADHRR

SMILES	IC50 [nM]
Cc1cc(Nc2ccc(C(F)(F)F)cc2)n2nc(C(C)C)nc2n1	> 100000
Cc1cc(Nc2ccc(S(F)(F)(F)(F)F)cc2)n2nc(C(C)C)nc2n1	> 100000
Cc1cc(Nc2ccc(C(F)(F)F)cc2)n2nc(C(C)(C)C)nc2n1	> 100000
Cc1cc(Nc2ccc(S(F)(F)(F)(F)F)cc2)n2nc(C(C)(C)C)nc2n1	> 100000
CCC(C)c1nc2nc(C)cc(Nc3ccc(C(F)(F)F)cc3)n2n1 (stereo not drawn)	> 100000
CCC(C)c1nc2nc(C)cc(Nc3ccc(S(F)(F)(F)(F)F)cc3)n2n1 (stereo not drawn)	> 100000
Cc1cc(Nc2ccc(Cl)cc2)n2nc(C3CC3)nc2n1	> 100000
Cc1cc(Nc2cccc(Cl)c2)n2nc(C3CC3)nc2n1	> 100000
CCC(F)(F)c1nc2nc(C)cc(Nc3ccc(Cl)cc3)n2n1	> 100000
CCC(F)(F)c1nc2nc(C)cc(Nc3cccc(Cl)c3)n2n1	> 100000
Cc1cc(Nc2ccc(C(F)(F)F)cc2)n2nc(C(F)(F)F)nc2n1	> 100000
